Measured values: US20050209278A1, “Piperidinyl- and piperazinyl-sulfonylmethyl hydroxamic acids and their use as protease inhibitors” (priority 2002, published 2005)
Where a name gives a salt, the structure may show the parent alone. Read-outs that look alike come from different tables or passages of the source.

Experiments:
[1] = target: T1, MMP-13 (Homo sapiens, UniProt P45452); assay: In vitro MMP inhibition, Ki determination (fluorogenic substrate II); assay type: biochemical
T1 construct: made in house; host or cells: baculovirus / insect cells
Experimental: (§1) Several hydroxamic acids and salts thereof were analyzed in in vitro assays to determine their ability to inhibit the MMP cleavage of peptide substrates. […] and IC50 constants were calculated from the assayed hydroxamic acid-MMP interactions.
(§2) Human recombinant MMP-1, MMP-2, MMP-9, MMP-13, and MMP-14 were used in this assay. All enzymes were prepared in Assignee's laboratories following usual laboratory procedures. Protocols for the preparation and use of these enzymes are available in the scientific literature. See, e.g., Enzyme Nomenclature (Academic Press, San Diego, Calif., 1992) (and the citations therein). See also, Freije et al., “Molecular cloning and expression of collagenase-3, a novel human matrix metalloproteinase produced by breast carcinomas,” J Biol. Chem., 269(24), 16766-16773 (1994).
The MMP-13 was obtained as a proenzyme from a full-length cDNA clone using baculovirus, as described by V. A. Luckow, “Insect Cell Expression Technology,” Protein Engineering: Principles and Practice, pp. 183-218 (edited by J. L. Cleland et al., Wiley-Liss, Inc., 1996). The expressed proenzyme was first purified over a heparin agarose column, and then over a chelating zinc chloride column. The proenzyme was then activated by APMA for use in the assay. […] See also, O'Reilly et al, Baculovirus Expression Vectors: A Laboratory Manual (W.H. Freeman and Co., New York, N.Y., 1992). See also, King et al., The Baculovirus Expression System: A Laboratory Guide (Chapman & Hall, London, England, 1992).
(§3) All MMPs were activated using 4-aminophenylmercuric acetate (“APMA”, Sigma Chemical, St. Louis, Mo.) or trypsin. MMP-9 also was activated using human recombinant MMP-3 (purified in Assignee's laboratory following standard cloning and purification techniques).
(§4) Two fluorogenic, methoxycoumarin-containing polypeptide substrates were used in the MMP inhibition assays: [drawing 427] Here, “Dpa” is 3-(2,4-dinitrophenyl)-L-2,3-diaminopropionyl group, and “MCA” is 7-methoxycoumarin-4-yl acetyl. Substrate (I) was purchased from Baychem (Redwood City, Calif.), and substrate II was prepared Assignee's laboratory. Substrate I was used in the IC50 determination assays, while substrate II was used in the Ki determination assays. In the absence of MMP inhibitory activity, either substrate is cleaved at the Gly-Leu peptide bond. This cleavage separates the highly fluorogenic peptide from the 2,4-dinitrophenyl quencher, thus resulting in increase of fluorescent intensity.
(§5) The stock solutions of the assayed hydroxamic acids (or salts thereof) were prepared in 1% dimethyl sulfoxide (DMSO). These stock solutions were diluted in Buffer A (100 mM Tris-HCl, 100 mM NaCl, 10 mM CaCl2, 0.05% polyoxyethylene 23 lauryl ether, pH 7.5) to obtain solutions with different hydroxamic acid concentrations, i.e., assay solutions with different concentrations of the assayed MMP inhibitory compound. The experiment controls contained the same amount of Buffer A/DMSO as the assayed sample, but contained no hydroxamic acid (or salt thereof).
(§6) The assays from which the Ki determinations were made were performed as follows. The assayed hydroxamic acid samples were incubated in separate wells of untreated white polystyrene plates (Nunc Nalgene International, Rochester, N.Y.), and analyzed on a Tecan SpectraFlour Plus plate reader. The excitation wavelength was 330 nm, and the emission wavelength—420 nm. All samples (assayed hydroxamic acids and controls) were incubated in separate plate wells at room temperature for 1 hr in the presence of 4 μM of MMP substrate (II). In the absence of MMP inhibitory activity, substrate II was cleaved at the Gly-Leu bond resulting in an increase of relative fluorescence. Inhibition was observed as a reduced rate of this increase in relative fluorescence. The various hydroxamic acids were analyzed using a single low enzyme concentration with a single substrate concentration fixed at or below the Km.

[2] = target: T2, MMP-1 (Homo sapiens, UniProt P03956); assay: as above; assay type: biochemical
T2 construct: made in house; host or cells: MMP-1-transfected HT-1080 cells (spent media)
T2 sequence (P03956 100-469): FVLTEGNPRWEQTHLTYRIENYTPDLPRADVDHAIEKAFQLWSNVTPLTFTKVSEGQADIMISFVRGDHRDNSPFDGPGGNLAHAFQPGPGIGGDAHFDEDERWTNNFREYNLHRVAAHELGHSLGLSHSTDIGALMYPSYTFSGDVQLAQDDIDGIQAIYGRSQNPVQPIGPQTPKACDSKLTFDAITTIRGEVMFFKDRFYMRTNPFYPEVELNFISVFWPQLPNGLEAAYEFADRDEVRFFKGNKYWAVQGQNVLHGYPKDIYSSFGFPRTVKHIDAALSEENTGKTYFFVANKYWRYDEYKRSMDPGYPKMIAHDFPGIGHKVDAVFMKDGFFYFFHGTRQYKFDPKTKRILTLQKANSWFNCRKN
Experimental: as §1, §2
The MMP-1 proenzyme was purified from the spent media of MMP-1-transfected HT-1080 cells provided by Dr. Harold Welgus of Washington University (St. Louis, Mo.). The protein was purified on a zinc chelating column.
as §3, §4, §5
as §6, with “Km. This protocol is a modification of method by Knight et al., FEBS Lett., 296(3), 263-266 (1992). Apparent inhibitory constants were determined by non-linear regression of reaction velocity as a function of inhibitor and enzyme concentration using Morrison's equation, as described by Kuzmic, Anal. Biochem. 286, 45-50 (2000). […] Since the substrate concentration was chosen to be at or below the Km, the apparent Ki's from this analysis were reported as Ki's without correction for the influence of substrate.” for “Km.”

[3] = human recombinant enzyme, 4 μM substrate II, room temperature, 1 hr, read-out: MMP-13 Ki
[4] = human recombinant enzyme, 4 μM substrate II, room temperature, 1 hr, read-out: MMP-1 Ki
[5] = value not in parenthesis, read-out: MMP-13 Ki
[6] = value not in parenthesis, read-out: MMP-1 Ki
[7] = MMP-13 Ki, value not in parenthesis
[8] = MMP-1 Ki, value not in parenthesis

Row | Compound | Ki [1, 3] [nM] | Ki [2, 4] [nM] | Ki [1, 5] [nM] | Ki [2, 6] [nM] | further results
1 | CCCCCc1ccc(N2CCN(S(=O)(=O)C3(C(=O)NO)CCOCC3)CC2)c(F)c1 [Example 23, 4-{[4-(2-fluoro-4-pentylphenyl)piperazin-1-yl]sulfonyl}-N-hydroxytetrahydro-2H-pyran-4-carboxamide Hydrochloride] | 4.17 | > 10000 | – | – | –
2 | CCCCc1ccc(N2CCN(S(=O)(=O)C3(C(=O)NO)CCN(CCOC)CC3)CC2)cc1 [Example 5, 4-{[4-(4-butylphenyl)piperazin-1-yl]sulfonyl}-N-hydroxy-1-(2-methoxyethyl)piperidine-4-carboxamide Dihydrochloride] | 0.522 | > 10000 | – | – | –
3 | O=C(NO)C1(S(=O)(=O)N2CCN(c3ccc(OCC4CC4)c(F)c3)CC2)CCN(C2CC2)CC1 [Example 10, 1-cyclopropyl-4-[[4-[4-(cyclopropylmethoxy)-3-fluorophenyl]-1-piperazinyl]sulfonyl]-N-hydroxy-4-piperidinecarboxamide, dihydrochloride] | 3.88 | > 10000 | – | – | –
4 | CCCCCc1ccc(N2CCN(S(=O)(=O)C3(C(=O)NO)CCN(CCOC)CC3)CC2)cc1F [Example 13, 4-{[4-(3-fluoro-4-pentylphenyl)piperazin-1-yl]sulfonyl}-N-hydroxy-1-(2-methoxyethyl)piperidine-4-carboxamide Dihydrochloride] | 0.61 | > 10000 | – | – | –
5 | CCCCCc1cnc(N2CCN(S(=O)(=O)C3(C(=O)NO)CCOCC3)CC2)s1 [Example 56] | – | – | 1.74 | > 10000 | –
6 | CCCCCCCCC1CCN(S(=O)(=O)C2(C(=O)NO)CCOCC2)CC1 [Example 26, 4-(4-octyl-piperidine-1-sulfonyl)-tetrahydro-pyran-4-carboxylic Acid Hydroxyamide] | 0.51 | 2970 | – | – | –
7 | O=C(NO)C1(S(=O)(=O)N2CCN(c3ccc(COCC(F)(F)C(F)(F)C(F)(F)C(F)F)cc3)CC2)CCOCC1 [Example 68] | – | – | – | – | Ki [1, 7]: 1.85 nM; Ki [2, 8]: > 10000 nM
8 | O=C(NO)C1(S(=O)(=O)N2CCN(c3ccc(COCC(F)(F)C(F)(F)C(F)(F)F)cc3)CC2)CCOCC1 [Example 69] | – | – | – | – | Ki [1, 7]: 2.11 nM; Ki [2, 8]: > 10000 nM
9 | COc1ccc(-c2cnc(N3CCN(S(=O)(=O)C4(C(=O)NO)CCOCC4)CC3)nc2)cc1 [Example 8, N-hydroxy-4-({4-[5-(4-methoxyphenyl)pyrimidin-2-yl]piperazin-1-yl}sulfonyl)tetrahydro-2H-pyran-4-carboxamide Hydrochloride] | 0.11 | 748 | – | – | –
10 | O=C(NO)C1(S(=O)(=O)N2CCN(c3ccc(CCC(F)(F)C(F)(F)F)cc3)CC2)CCOCC1 [Example 17, N-hydroxy-4-({4-[4-(3,3,4,4,4-pentafluorobutyl)phenyl]piperazin-1-yl}sulfonyl)tetrahydro-2H-pyran-4-carboxamide Hydrochloride] | 0.328 | > 10000 | – | – | –
11 | O=C(NO)C1(S(=O)(=O)N2CCN(c3ccc(-c4ccccc4)c(F)c3)CC2)CCOCC1 [Example 12, 4-{[4-(2-fluoro-1,1′-biphenyl-4-yl)piperazin-1-yl]sulfonyl}-N-hydroxytetrahydro-2H-pyran-4-carboxamide Hydrochloride] | 0.77 | > 10000 | – | – | –
12 | COCCOc1ccc(N2CCN(S(=O)(=O)C3(C(=O)NO)CCOCC3)CC2)cc1 [Example 14, N-hydroxy-4-({4-[4-(2-methoxyethoxy)phenyl]piperazin-1-yl}sulfonyl)tetrahydro-2H-pyran-4-carboxamide Hydrochloride] | 2.67 | > 10000 | – | – | –

More lines, main results first:

Row | Ki [1, 3] [nM] | Ki [2, 4] [nM] | Ki [1, 5] [nM] | Ki [2, 6] [nM] | Compound | further results
13 | – | – | 0.227 | > 10000 | CC(C)CCc1ccc(N2CCN(S(=O)(=O)C3(C(=O)NO)CCOCC3)CC2)nc1 [Example 133] | –
14 | – | – | 1.21 | > 10000 | CC(C)(C)N1CCC(C(=O)NO)(S(=O)(=O)N2CCN(c3ccc(OCCCC(F)(F)F)cc3F)CC2)CC1 [Example 116] | –
15 | – | – | 0.24 | > 10000 | COCCN1CCC(C(=O)NO)(S(=O)(=O)N2CCN(c3ccc(OCCC(C)C)cc3)CC2)CC1 [Example 148] | –
16 | – | – | 0.151 | 8900 | CCCCOc1ccc(N2CCN(S(=O)(=O)C3(C(=O)NO)CCN(C(=O)OCCOC)CC3)CC2)cc1 [Example 141] | –
17 | – | – | 0.621 | > 10000 | CCCCOc1ccc(N2CCN(S(=O)(=O)C3(C(=O)NO)CCN(c4ccc(C)nc4)CC3)CC2)cc1 [Example 131] | –
18 | – | – | 0.561 | > 10000 | CCCCOc1ccc(N2CCN(S(=O)(=O)C3(C(=O)NO)CCN(c4cccnc4)CC3)CC2)cc1 [Example 154] | –
19 | – | – | 0.211 | > 10000 | CC(C)CCOc1ccc(N2CCN(S(=O)(=O)C3(C(=O)NO)CCN(C4CC4)CC3)CC2)cc1 [Example 128] | –
20 | – | – | 0.79 | > 10000 | COCCN1CCC(C(=O)NO)(S(=O)(=O)N2CCN(c3ccc(OCC(F)(F)F)cc3)CC2)CC1 [Example 119] | –
21 | – | – | 3.48 | 686 | O=C(NO)C1(S(=O)(=O)N2CCN(c3ncc(Br)cn3)CC2)CCOCC1 [Example 103] | –
22 | – | – | 0.43 | > 10000 | CCCCOc1ccc(N2CCN(S(=O)(=O)C3(C(=O)NO)CCN(C(=O)NCCOC)CC3)CC2)cc1 [Example 118] | –
23 | – | – | 0.27 | > 10000 | O=C(NO)C1(S(=O)(=O)N2CCN(c3ccc(OCCCC(F)(F)F)cc3)CC2)CCN(c2cnccn2)CC1 [Example 112] | –
24 | – | – | 0.505 | > 10000 | CCCCOc1ccc(N2CCN(S(=O)(=O)C3(C(=O)NO)CCN(c4ccc(OC)nc4)CC3)CC2)cc1 [Example 142] | –
25 | – | – | – | > 10000 | CCCCOc1ccc(N2CCN(S(=O)(=O)C3(C(=O)NO)CCN(c4nccc(C(F)(F)F)n4)CC3)CC2)cc1 [Example 130] | –
26 | – | – | – | > 10000 | O=C(NO)C1(S(=O)(=O)N2CCN(c3ccc(OCCCC(F)(F)F)cc3F)CC2)CCOCC1 [Example 117] | –
